Measurements: patent publication US6284785A, “1-arenesulfonyl-2-aryl-pyrrolidine and pyridine derivatives” (Hoffmann- La Roche Inc., priority 1999, dated 2001)

Biological target: T1, rat mGlu 1a receptor (Rattus norvegicus, UniProt P23385)
T1 construct: expressed in transfected cells; host or cells: EBNA cells (transient transfection)
Assay: [Ca2+]i measurements (FLIPR, Fluo-3 AM) on mGlu 1a transfected EBNA cells; agonist or antagonist (against 10 μM glutamate)
Format: cell-based
Details: for Remarks (agonist / antagonist): table of substituents of the Examples, column Remarks
Experimental: cDNA encoding rat mGlu 1a receptor obtained from Prof. Nakanishi (Kyoto, Japan) was transiently tranfected into EBNA cells using a procedure described by Schlaeger et. al, New Dev. New Appl. Anim Cell Techn., Proc. ESACT Meet., 15th (1998), 105-112 and 117-120. [Ca^2+ ]i measurements were performed on mGlu 1a transfected EBNA cells after incubation of the cells with Fluo-3 AM (0.5 μM final concentration) for 1hour at 37° C. followed by 4 washes with assay buffer (DMEM supplemented with Hank's salt and 20 mM HEPES. [Ca^2+ ]i measurements were done using a fluorometric imaging plate reader (FLIPR, Molecular Devices Corporation, La Jolla, Calif. USA). When compounds were evaluated as antagonists they were tested against 10 μM glutamate as agonist.
The inhibition (antagonists) or activation (agonists) curves were fitted with a four parameter logistic equation giving EC50, IC50, and Hill coefficient using the iterative non linear curve fitting software Origin (Microcal Software Inc., Northampton, Mass., USA).

T1 sequence (P23385 19-1199): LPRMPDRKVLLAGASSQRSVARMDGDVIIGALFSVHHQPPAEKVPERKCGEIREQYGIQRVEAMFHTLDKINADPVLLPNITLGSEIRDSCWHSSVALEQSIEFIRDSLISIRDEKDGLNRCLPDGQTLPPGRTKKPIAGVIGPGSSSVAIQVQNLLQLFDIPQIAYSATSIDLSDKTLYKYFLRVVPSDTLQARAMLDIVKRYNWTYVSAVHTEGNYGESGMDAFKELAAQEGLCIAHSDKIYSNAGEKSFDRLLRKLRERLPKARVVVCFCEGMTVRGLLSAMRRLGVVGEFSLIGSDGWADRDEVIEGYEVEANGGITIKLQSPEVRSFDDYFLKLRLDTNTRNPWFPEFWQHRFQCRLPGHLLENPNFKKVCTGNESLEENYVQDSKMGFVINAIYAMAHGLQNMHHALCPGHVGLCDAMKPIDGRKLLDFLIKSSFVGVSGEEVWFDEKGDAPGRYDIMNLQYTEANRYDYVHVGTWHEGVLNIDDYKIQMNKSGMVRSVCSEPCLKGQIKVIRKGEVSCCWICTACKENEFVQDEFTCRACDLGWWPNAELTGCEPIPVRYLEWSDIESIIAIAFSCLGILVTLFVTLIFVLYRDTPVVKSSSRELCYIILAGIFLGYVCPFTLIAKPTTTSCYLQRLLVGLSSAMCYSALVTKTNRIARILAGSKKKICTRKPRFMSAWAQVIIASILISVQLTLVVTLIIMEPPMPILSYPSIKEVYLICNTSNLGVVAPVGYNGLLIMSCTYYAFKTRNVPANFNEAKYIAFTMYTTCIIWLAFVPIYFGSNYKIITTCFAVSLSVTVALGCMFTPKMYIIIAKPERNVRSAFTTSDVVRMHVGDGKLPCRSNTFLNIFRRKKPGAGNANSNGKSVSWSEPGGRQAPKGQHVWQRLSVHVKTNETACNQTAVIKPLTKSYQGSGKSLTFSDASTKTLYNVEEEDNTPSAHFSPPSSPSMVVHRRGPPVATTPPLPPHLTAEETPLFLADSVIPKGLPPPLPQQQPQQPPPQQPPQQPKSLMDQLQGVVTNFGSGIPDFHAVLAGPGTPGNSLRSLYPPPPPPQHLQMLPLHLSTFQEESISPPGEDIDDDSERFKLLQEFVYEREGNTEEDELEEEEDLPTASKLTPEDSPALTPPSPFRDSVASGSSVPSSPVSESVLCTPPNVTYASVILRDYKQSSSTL

| Remarks (agonist / antagonist) | Structure (SMILES) | other results |
| --- | --- | --- |
| Antagonist | CCCc1ccc(S(=O)(=O)N2CCCC2c2ccc(F)cc2)cc1 (racemic) [Example 59, (RS)-2-(4-Fluoro-phenyl)-1-(4-propyl-benzenesulfonyl)-pyrrolidine] |  |
| Agonist | O=S(=O)(c1ccc(C(F)(F)F)cc1)N1CCCC1c1ccc(F)cc1 (racemic) [Example 60, (RS)-2-(4-Fluoro-phenyl)-1-(4-trifluoromethyl-benzenesulfonyl)-pyrrolidine] | agonistic / antagonistic activity to the mGlu receptor: agonistic activty |
| Antagonist | Cc1cc(C)c(S(=O)(=O)N2CCCC2c2ccc(F)cc2)c(C)c1 (racemic) [Example 61, (RS)-2-(4-Fluoro-phenyl)-1-(2,4,6-trimethyl-benzenesulfonyl)-pyrrolidine] |  |
| Antagonist | Cc1ccc(S(=O)(=O)N2CCCC2c2ccc(F)cc2)cc1Cl (racemic) [Example 62, (RS)-1-(3-Chloro-4-methyl-benzenesulfonyl)-2-(4-fluoro-phenyl)-pyrrolidine] |  |
| Antagonist | O=S(=O)(c1ccccc1F)N1CCCC1c1ccc(F)cc1 (racemic) [Example 63, (RS)-1-(2-Fluoro-benzenesulfonyl)-2-(4-fluoro-phenyl)-pyrrolidine] |  |
| Antagonist | O=S(=O)(c1cccc(F)c1)N1CCCC1c1ccc(F)cc1 (racemic) [Example 64, (RS)-1-(3-Fluoro-benzenesulfonyl)-2-(4-fluoro-phenyl)-pyrrolidine] |  |
| Antagonist | N#Cc1ccccc1S(=O)(=O)N1CCCC1c1ccc(F)cc1 (racemic) [Example 65, (RS)-1-(2-Cyano-benzenesulfonyl)-2-(4-fluoro-phenyl)-pyrrolidine] |  |
| Antagonist | O=S(=O)(c1ccc2ccccc2c1)N1CCCC1c1ccc(F)cc1 (racemic) [Example 66, (RS)-2-(4-Fluoro-phenyl)-1-(naphthalene-2-sulfonyl)-pyrrolidine] |  |
| Antagonist | Cc1ccc(S(=O)(=O)N2CCCC2c2ccc(C)cc2C)cc1 (racemic) [Example 67, (RS)-2-(2,4-Dimethyl-phenyl)-1-(toluene-4-sulfonyl)-pyrrolidine] |  |
| Antagonist | Cc1ccc(C2CCCN2S(=O)(=O)c2ccc(F)cc2)c(C)c1 (racemic) [Example 68, (RS)-2-(2,4-Dimethyl-phenyl)-1-(4-fluoro-benzenesulfonyl)-pyrrolidine] |  |
| Agonist | Cc1ccc(S(=O)(=O)N2CCCC2c2ccco2)cc1 (racemic) [Example 69, (RS)-2-Furan-2-yl-1-(toluene-4-sulfonyl)-pyrrolidine] | agonistic / antagonistic activity to the mGlu receptor: agonistic activty |
| Antagonist | O=S(=O)(c1ccc(F)cc1)N1CCCC1c1ccco1 (racemic) [Example 70, (RS)-1-(4-Fluoro-benzenesulfonyl)-2-furan-2-yl-pyrrolidine] |  |
| Antagonist | O=S(=O)(c1ccc(Cl)cc1)N1CCCC1c1ccco1 (racemic) [Example 71, (RS)-1-(4-Chloro-benzenesulfonyl)-2-furan-2-yl-pyrrolidine] |  |
| Agonist | Cc1ccc(S(=O)(=O)N2CCCC2c2ccc(N(C)C)cc2)cc1 (racemic) [Example 72, (RS)-2-(4-N,N-Dimethylamino-phenyl)-1-(toluene-4-sulfonyl)-pyrrolidine] | agonistic / antagonistic activity to the mGlu receptor: agonistic activty |
| Antagonist | CN(C)c1ccc(C2CCCN2S(=O)(=O)c2ccc(F)cc2)cc1 (racemic) [Example 73, (RS)-2-(4-N,N-Dimethylamino-phenyl)-1-(4-fluoro-benzenesulfonyl)-pyrrolidine] |  |

Second part, the molecule before the results:

| Structure (SMILES) | Remarks (agonist / antagonist) | other results |
| --- | --- | --- |
| N#Cc1ccc(S(=O)(=O)N2CCCC2c2ccc(F)cc2)cc1 (racemic) [Example 33, (RS)-2-(4-Fluoro-phenyl)-1-(4-cyano-benzenesulfonyl)-pyrrolidine] | Antagonist |  |
| COc1cccc(C2CCCN2S(=O)(=O)c2ccc(Cl)cc2)c1 (racemic) [Example 34, (RS)-1-(4-Chloro-benzenesulfonyl)-2-(3-methoxy-phenyl)-pyrrolidine] | Antagonist |  |
| O=S(=O)(c1ccc(F)cc1)N1CCCC1c1cccs1 (racemic) [Example 35, (RS)-1-(4-Fluoro-benzenesulfonyl)-2-thien-2-yl-pyrrolidine] | Antagonist |  |
| O=S(=O)(c1ccc(Cl)cc1)N1CCCC1c1cccs1 (racemic) [Example 36, (RS)-1-(4-Chloro-benzenesulfonyl)-2-thien-2-yl-pyrrolidine] | Antagonist | agonist/antagonist (activity-data table): antagonist; IC50 (antagonist, tested against 10 μM glutamate as agonist, read-out: IC50 (compounds marked antagonist)): 560 nM |
| Cc1ccc(S(=O)(=O)N2CCCC2c2cccs2)cc1 (racemic) [Example 37, (RS)-2-Thien-2-yl-1-(toluene-4-sulfonyl)-pyrrolidine] | Antagonist |  |
| Cc1ccc(S(=O)(=O)N2CCCC2c2ccc(F)c(F)c2)cc1 (racemic) [Example 38, (RS)-2-(3,4-Difluoro-phenyl)-1-(toluene-4-sulfonyl)-pyrrolidine] | Agonist | agonistic / antagonistic activity to the mGlu receptor: agonistic activty |
| O=S(=O)(c1ccc(Cl)cc1)N1CCCC1c1ccc(F)c(F)c1 (racemic) [Example 39, (RS)-1-(4-Chloro-benzenesulfonyl)-2-(3,4-difluoro-phenyl)-pyrrolidine] | Agonist | agonistic / antagonistic activity to the mGlu receptor: agonistic activty |
| CN(C)c1ccc(C2CCCN2S(=O)(=O)c2ccc(Cl)cc2)cc1F (racemic) [Example 40, (RS)-1-(4-Chloro-benzenesulfonyl)-2-(4-dimethylamino-3-fluoro-phenyl)-pyrrolidine] | Agonist | agonistic / antagonistic activity to the mGlu receptor: agonistic activty |
| Cc1ccc(S(=O)(=O)N2CCCC2c2ccc(N(C)C)c(F)c2)cc1 (racemic) [Example 41, (RS)-1-(p-Toluenesulfonyl)-2-(4-dimethylamino-3-fluoro-phenyl)-pyrrolidine] | Antagonist |  |
| Cc1ccc(S(=O)(=O)N2CCCC2c2ccc(F)c(Cl)c2)cc1 (racemic) [Example 42, (RS)-2-(3-Chloro-4-fluoro-phenyl)-1-(toluene-4-sulfonyl)-pyrrolidine] | Agonist |  |
| O=S(=O)(c1ccc(Cl)cc1)N1CCCC1c1ccc(F)c(Cl)c1 (racemic) [Example 43, (RS)-1-(4-Chloro-benzenesulfonyl)-2-(3-chloro-4-fluoro-phenyl)-pyrrolidine] | Antagonist |  |
| O=S(=O)(c1ccc(F)cc1)N1CCCC1c1ccc(F)c(Cl)c1 (racemic) [Example 44, (RS)-2-(3-Chloro-4-fluoro-phenyl)-1-(4-fluoro-benzenesulfonyl)-pyrrolidine] | Antagonist |  |
| CN(C)c1ccc(C2CCCN2S(=O)(=O)c2ccc(Cl)cc2)cc1Cl (racemic) [Example 45, (RS)-1-(4-Chloro-benzenesulfonyl)-2-(4-dimethylamino-3-chloro-phenyl)-pyrrolidine] | Antagonist |  |
| CN(C)c1ccc(C2CCCN2S(=O)(=O)c2ccc(F)cc2)cc1Cl (racemic) [Example 46, (RS)-1-(4-fluoro-benzenesulfonyl)-2-(4-diimethylamino-3-chloro-phenyl)-pyrrolidine] | Antagonist |  |
| Cc1ccc(S(=O)(=O)N2CCCC2c2ccc(Cl)c(Cl)c2)cc1 (racemic) [Example 47, (RS)-2-(3,4-Dichloro-phenyl)-1-(toluene-4-sufonyl)-pyrrolidine] | Antagonist |  |
| Cc1ccc(S(=O)(=O)N2CCCC2c2ccc(C(F)(F)F)cc2)cc1 (racemic) [Example 48, (RS)-1-(Toluene-4-sulfonyl)-2-(4-trifluoromethyl-phenyl)-pyrrolidine] | Agonist | agonistic / antagonistic activity to the mGlu receptor: agonistic activty |
| O=S(=O)(c1ccc(F)cc1)N1CCCC1c1ccc(C(F)(F)F)cc1 (racemic) [Example 50, (RS)-1-(4-Floro-benzenesulfonyl)-2-(4-trifluoromethyl-phenyl)-pyrrolidine] | Antagonist |  |
| Cc1ccc(S(=O)(=O)N2CCCC2c2ccccc2Cl)cc1 (racemic) [Example 51, (RS)-2-(2-Chloro-phenyl)-1-(toluene-4-sulfonyl)-pyrrolidine] | Antagonist |  |
| Cc1ccc(S(=O)(=O)N2CCCC2c2ccsc2)cc1 (racemic) [Example 55, (RS)-2-Thien-3-yl-1-(toluene-4-sulfonyl)-pyrrolidine] | Agonist | agonistic / antagonistic activity to the mGlu receptor: agonistic activty |
| O=S(=O)(c1ccc(Cl)cc1)N1CCCC1c1ccsc1 (racemic) [Example 56, (RS)-1-(4-Chloro-benzenesulfonyl)-2-thien-3-yl-pyrrolidine] | Agonist | agonistic / antagonistic activity to the mGlu receptor: agonistic activty |
| Cc1ccc(S(=O)(=O)N2CCCC2c2ccc(Cl)c(C)c2)cc1 (racemic) [Example 58, (RS)-2-(4-Chloro-3-methyl-phenyl)-1-(toluene-4-sulfonyl)-pyrrolidine] | Agonist | agonistic / antagonistic activity to the mGlu receptor: agonistic activty |
